Assay results taken from patent US20060058286A1, “Methods of treating HIV infection” (priority 2004, published 2006).
pEC50: −log10 of the molar value.

Experiments:
HIV-1 NL4-3 [1] = assay: microbe, parasite or virus in culture
Procedure: (§1) Virus and cell lines. The T-cell line, MT-2 was obtained through the AIDS Research and Reference Reagent Program, NIAID and was contributed by Dr. D. Richman. The cell line was cultured in RPMI 1640 medium supplemented with 10% fetal bovine serum, 2 mM L-glutamine and sub-cultured twice a week. The NL4-3 strain of HIV-1 was obtained from the AIDS Research and Reference Reagent Program. Both virus stocks were amplified and titered in MT-2 cells using a virus infectivity assay.
(§2) Drug Susceptibility and Cytotoxicity Assays. For drug susceptibility assays, MT-2 cells were infected with HIV-1 NL4-3 at an MOI of 0.001, and seeded into 96-well microtiter plates (2.5×10^5 cells/ml) containing serial dilutions of test compounds. […] Each drug ratio consisted of an array of 3-fold serial dilutions, and was performed in quadruplicate. The plates were incubated at 37° C./5% CO2. The MT-2 cells infected with HIV-1 NL4-3 were incubated for 5 days. On day-five post-infection, 20 μl from each well was harvested and quantitated by a reverse transcriptase (RT) assay or an MTS assay. Cytotoxicity assays were performed using uninfected cells, exposed to the same drug combinations, and incubated for five days. Cell viability was determined by an XTT assay. The CC50 values were calculated by using the exponential form of the median effect equation as mentioned below for calculation of EC50.
(§3) In this equation, Fa stands for “fraction affected,” and represents the fraction of the viral load that has been inactivated.
In carrying out the combination experiments below, the EC50 for Compound 1 and each comparator compound was determined during the course of each study, and used in the subsequent data analysis.

HIV-1 NL4-3 [2] = assay: Two-drug combination study with Compound 1 (combination indices); assay type: cell-based; conditions: for Combination Indices at 50% HIV Inhibition (Confidence Interval) / Combination Indices at 75% HIV Inhibition (Confidence Interval) / Combination Indices at 90% HIV Inhibition (Confidence Interval): 95% CI in parentheses; for Overall Result: overall antiviral effect of the two-drug combination with Compound 1, all ratios and effective levels
Procedure: as §1, §2
Analysis of Drug Combination Effects. For determination of CI values, drugs were diluted in a fixed ratio and multiple ratios were analyzed. The drug serial dilutions spanned a range of concentrations near the EC50 value of each compound, so that equivalent antiviral activities could be compared. Concentration-response curves were estimated for each individual drug and every combination using the median-effect equation. The equation was fit using a nonlinear regression routine (Proc Nlin) in PC SAS version 8.01 (SAS Institute Inc., SAS Version 8.01, Cary, N.C.: SAS Institute Inc., 1990).
as §3
To assess antiviral effects of different drug combination treatments, combination indices (CIs) were calculated according to Chou and Rideout. The combination index was computed as CI=[D]1/[Dm]1+[D]2/[Dm]2
In this equation [Dm]1 and [Dm]2 are the concentrations of drugs that would individually produce a specific level of effect, while [D]1 and [D]2 are the concentrations of drugs in combination that would produce the same level of effect.
Theoretically, additivity is implied if the CI is equal to one, synergy if the CI is less than one, and antagonism if the CI is greater than one. […] At best, we can construct a range that contains the likely values for the CI, given the noise in the data. In this report, these ranges are reported in parentheses next to each point estimate of the CI. […] If the range fell entirely above 1.0, we would infer antagonistic behavior. If the range were to include 1.0, we would infer additivity.

[3] = Human immunodeficiency virus 1, NL43, MT2, 120 h
[4] = combination with Compound 1, EC50 ratio 1:1 (Compound 1:comparator)
[5] = combination with Compound 1, EC50 ratio 1:2.5 (Compound 1:comparator)
[6] = combination with Compound 1, EC50 ratio 2.5:1 (Compound 1:comparator)

Row | Molecule | pEC50 (HIV-1 NL4-3 [1]; [3]) | Combination Indices at 50% HIV Inhibition (Confidence Interval) (HIV-1 NL4-3 [2]; [4]) | Combination Indices at 75% HIV Inhibition (Confidence Interval) (HIV-1 NL4-3 [2]; [4]) | Combination Indices at 90% HIV Inhibition (Confidence Interval) (HIV-1 NL4-3 [2]; [4]) | Combination Indices at 50% HIV Inhibition (Confidence Interval) (HIV-1 NL4-3 [2]; [5]) | Combination Indices at 75% HIV Inhibition (Confidence Interval) (HIV-1 NL4-3 [2]; [5]) | Combination Indices at 90% HIV Inhibition (Confidence Interval) (HIV-1 NL4-3 [2]; [5]) | Combination Indices at 50% HIV Inhibition (Confidence Interval) (HIV-1 NL4-3 [2]; [6]) | Combination Indices at 75% HIV Inhibition (Confidence Interval) (HIV-1 NL4-3 [2]; [6]) | Combination Indices at 90% HIV Inhibition (Confidence Interval) (HIV-1 NL4-3 [2]; [6]) | Overall Result (HIV-1 NL4-3 [2]) | further results
1 | Nc1nc(NC2CC2)c2ncn([C@H]3C=C[C@@H](CO)C3)c2n1 [Abacavir, abacavir] | 6.13 | 0.66 (0.48, 0.84) | 0.89 (0.55, 1.91) | 1.20 (0.48, 1.91) | 0.58 (0.45, 0.71) | 0.92 (0.62, 1.21) | 1.46 (0.72, 2.20) | 0.65 (0.44, 0.86) | 0.88 (0.49, 1.28) | 1.20 (0.36, 2.05) | Additive | combination effect at the 50% effective level (HIV-1 NL4-3 [2]; combination with Compound 1): synergy; combination effect at the 75% and 90% effective levels (HIV-1 NL4-3 [2]; combination with Compound 1): additivity
2 | enfuvirtide | – | 0.74 (0.58, 0.89) | 0.95 (0.67, 1.24) | 1.25 (0.66, 1.83) | 0.72 (0.55, 0.89) | 0.69 (0.46, 0.91) | 0.68 (0.33, 1.02) | 1.04 (0.82, 1.27) | 0.95 (0.66, 1.24) | 0.87 (0.45, 1.29) | Additive- | pEC50 (HIV-1 NL4-3 [1]; NL4-3): 8.15; Overall Result (HIV-1 NL4-3 [2]; listed as T-20): synergistic to additive
3 | CC(C)Nc1cccnc1N1CCN(C(=O)c2cc3cc(NS(C)(=O)=O)ccc3[nH]2)CC1 [Delavirdine, delavirdine] | 7.30 | 0.64 (0.50, 0.78) | 0.59 (0.41, 0.78) | 0.58 (0.30, 0.85) | 0.56 (0.47, 0.64) | 0.41 (0.32, 0.50) | 0.31 (0.20, 0.41) | 0.52 (0.44, 0.60) | 0.44 (0.34, 0.54) | 0.39 (0.26, 0.53) | Synergistic | Overall Result (HIV-1 NL4-3 [2]; listed as delavirdine): strong synergistic effects
4 | CC(C)(C)NC(=O)[C@@H]1C[C@@H]2CCCC[C@@H]2CN1C[C@@H](O)[C@H](Cc1ccccc1)NC(=O)[C@H](CC(N)=O)NC(=O)c1ccc2ccccc2n1 [Saquinavir, saquinavir] | 7.96 | 0.65 (0.49, 0.80) | 0.85 (0.56, 1.14) | 1.20 (0.55, 1.84) | 0.55 (0.42, 0.68) | 0.97 (0.65, 1.29) | 1.81 (0.86, 2.77) | 0.47 (0.38, 0.56) | 0.60 (0.44, 0.75) | – | Additive- | Overall Result (HIV-1 NL4-3 [2]; listed as saquinavir): additive to synergistic
5 | C[C@H](Cn1cnc2c(N)ncnc21)OCP(=O)(O)O [Tenofovir, tenofovir] | – | 1.30 (1.00, 1.61) | 1.02 (0.69, 1.35) | 0.80 (0.39, 1.21) | 0.93 (0.63, 1.23) | 0.99 (0.54, 1.43) | 1.06 (0.31, 1.80) | 1.03 (0.65, 1.40) | 0.84 (0.42, 1.27) | 0.70 (0.14, 1.25) | Additive | pEC50 (HIV-1 NL4-3 [1]; MT-2 cells infected with HIV-1 NL4-3, MOI 0.001, 5 days, single drug): 8.52
6 | Cc1c(O)cccc1C(=O)N[C@@H](CSc1ccccc1)[C@H](O)CN1C[C@H]2CCCC[C@H]2C[C@H]1C(=O)NC(C)(C)C [Nelfinavir, nelfinavir] | 8.10 | 0.55 (0.45, 0.65) | 0.57 (0.42, 0.71) | 0.59 (0.35, 0.83) | 0.41 (0.34, 0.49) | 0.50 (0.38, 0.63) | 0.62 (0.36, 0.87) | 0.82 (0.65, 0.99) | 0.84 (0.60, 1.08) | 0.87 (0.47, 1.27) | Moderately | combination effect at the 5:1 and 2:1 molar ratios (HIV-1 NL4-3 [2]; combination with Compound 1, all effective levels): synergy; combination effect at the 12.5:1 molar ratio (HIV-1 NL4-3 [2]; combination with Compound 1, only at the 75% and 90% effective levels): bias toward additivity; Overall Result (HIV-1 NL4-3 [2]; listed as nelfinavir): moderately synergistic
7 | Cc1cn([C@H]2C=C[C@@H](CO)O2)c(=O)[nH]c1=O [Stavudine, stavudine] | 7.26 | 0.63 (0.42, 0.85) | 0.51 (0.29, 0.74) | 0.43 (0.10, 0.75) | 1.32 (0.94, 1.69) | 0.68 (0.41, 0.94) | 0.36 (0.12, 0.59) | 1.20 (0.88, 1.51) | 0.71 (0.45, 0.96) | 0.43 (0.17, 0.68) | Additive- | combination effect at the 50% effective level (HIV-1 NL4-3 [2]; combination with Compound 1): additivity; combination effect at the 75% and 90% effective levels (HIV-1 NL4-3 [2]; combination with Compound 1): synergy; Overall Result (HIV-1 NL4-3 [2]; listed as stavudine): additive-synergistic
8 | COC(=O)N[C@H](C(=O)N[C@@H](Cc1ccccc1)[C@@H](O)CN(Cc1ccc(-c2ccccn2)cc1)NC(=O)[C@@H](NC(=O)OC)C(C)(C)C)C(C)(C)C [Atazanavir, atazanavir] | 8.05 | 0.64 (0.54, 0.73) | 0.60 (0.49, 0.72) | 0.59 (0.43, 0.75) | 0.91 (0.81, 1.20) | 0.90 (0.70 1.10) | 0.90 (0.57, 1.23) | 1.01 (0.80, 1.19) | 1.02 (0.77, 1.28) | 1.09 (0.67, 1.50) | Additive- | Overall Result (HIV-1 NL4-3 [2]; listed as atazanavir): additive to synergistic
